{
  "source": "patent US20110257220A1",
  "about": "“3,11 b-cis-Dihydrotetrabenazine for the Treatment of Schizophrenia and Other Psychoses” (CAMBRIDGE LABORATORIES (IRELAND) LIMITED, priority 2005, published 2011)",
  "key": {"[1]": {"system": "female hooded-Lister rats", "details": "risperidone; Grayson et al; cited from earlier work"}, "[2]": {"system": "female hooded-Lister rats", "assay": "Novel object recognition (NOR) task, sub-chronic PCP-induced cognitive deficit", "format": "in vivo, rat", "details": "0.2 mg/kg risperidone i.p.; sub-chronic PCP rats; did not reach statistical significance; FIG. 3", "excerpt": "Certain pre-clinical tests allow the observation of relatively subtle cognitive deficits in the rat that resemble cognitive symptoms in subjects with schizophrenia. The cognitive deficits observed are seen in behaviours such as working memory deficits which may be measured by recognition tasks such as the novel object recognition (NOR) paradigm. A recognition memory task allows the comparison between presented stimuli and previously stored information. Ennaceur & Delacour, Behav. Brain Res. 31: 47-59 (1988) described the NOR test in rats which was based on the differential exploration of familiar and new objects. The NOR test is a non-rewarded, ethologically relevant paradigm based on the spontaneous exploratory behaviour of rats which measures working memory. Each session consists of two trials. In the first trial, the rats are exposed to two identical objects in an open field. During the second trial, rats are exposed to two dissimilar objects, one familiar object from the first trial and one new object. Object recognition in rats can be measured as the difference in time spent exploring the familiar and the new object.\nThe abovementioned rodent model was used to assess the effects of the Isomer A on sub-chronic PCP-induced deficits in working memory using the novel object recognition (NOR) paradigm. The working hypothesis was that both acute and sub-chronic treatment with Isomer A will attenuate the selective working memory deficit induced by sub-chronic PCP as measured in the NOR test paradigm.\nRats are allowed to habituate to the empty test box and the behavioural test room environment for 1 hour on day 1. Prior to behavioural testing on day 2 rats are given a further 3 minutes habituation.\nFollowing the 3 minute habituation period, the rats are given two 3 minute trials (T1 and T2) which are separated by a 1 minute inter-trial interval in the home cage during which the objects are changed.\nIn this trial, the animals are allowed to explore two identical objects (A1 and A2) for 3 minutes.\nIn this trial, the animals explore a familiar object (A) from T1 and a novel object (B) for 3 minutes. The familiar object presented during T2 is a duplicate of the object presented in T1 in order to avoid any olfactory trails.\nThe object exploration is defined by animals licking, sniffing or touching the object with the forepaws whilst sniffing, but not leaning against, turning around, standing or sitting on the object. The exploration time (s) of each object (A1, A2, A and B) in each trial are recorded using two stopwatches and the following factors are calculated: • Total exploration time of both objects in the acquisition trial (s). • Total exploration time of both objects in the retention trial (s). • Habituation of exploratory activity. The LMA includes the exploration time, as measured by the number of lines crossed, for both the trials. • Discrimination index, which is calculated as shown below;\n(time spent exploring novel object−time spent exploring familiar object)÷total time spent in exploring the objects\nBehaviour in all trials was recorded on video for subsequent blind scoring.\n50 female hooded-Lister rats (Harlan, UK) were used as subjects for these studies. Rats were housed in groups of 5 under standard laboratory conditions under a 12 hr light:dark cycle, lights on at 0700 hr. All testing was carried out in the light phase. Food and water were freely provided. […]"}},
  "data": [
    {"compound": "Cc1nc2n(c(=O)c1CCN1CCC(c3noc4cc(F)ccc34)CC1)CCCC2", "note": "[risperidone, reference compound]", "values": [
      {"measurement": "Sub-chronic PCP-induced deficit in NOR paradigm", "setting": "[1]", "value": "efficacy of risperidone to attenuate"},
      {"measurement": "Discrimination index (DI)", "setting": "[2]", "value": "improved"}
    ]}
  ]
}
